For data set [1], the system named is early cytomegalovirus promoter. Briefly: Screening assay control: CMV promoter driven RFP in RBL cells (microplate reader). It counts as cell-based. The conditions noted are these: 5 μg/ml, 48 h, microplate reader, DMSO = 100, read-out: RFP values (%). The procedure: As an unrelated promoter, the early cytomegaloviral promoter element was cloned into a promoterless Red Fluorescence Protein (RFP) expression plasmid. Rat Basophil Leukemia (RBL) cells were transfected with the plasmid, stable RFP expressing cells enriched, incubated with various compounds and were assessed for red fluorescence values. Analyzing the inhibition of an unrelated promoter (in this case, early cytomegalovirus promoter) that drove Red Fluorescence Protein (RFP) expression assessed non-specificity of the compound under analysis.
(§1) The plasmids were independently transfected into immune cells (Rat basophil Leukemia, RBL cells) to generate green and red fluorescent RBL cells that were subsequently enriched by means of flow cytometry. These cells were then mixed in equal ratio (1:1) and incubated in a 96 well plate at 100,000 cells/well in a volume of 200 μl of phenol red free RPMI supplemented with 8% fetal calf serum, L-glutamate and antibiotics (penicillin, streptomycin) and various compounds (3 and 5 μg/ml concentrations) from available chemical libraries. At defined time points (8 h, 24 h and 48 h), the GFP and RFP fluorescence was measured using a 96 well microplate reader (Synergy, BioTek Instruments). […] Selected compounds show different levels of modulation of coronin 1 promoter driven GFP and CMV promoter driven RFP fluorescence. GFP and RFP fluorescence were analyzed with a microplate reader upon incubation with the top coronin 1 promoter inhibiting compounds. Shown are percentage of GFP reduction (left column) and percentage of RFP reduction (right column) for the compounds at 5 μg/ml concentration at 48 h. Cycloheximide (CHX) serves as positive control whereas media and DMSO serve as negative controls. […] Cells were imaged using a fluorescence microscope to validate fluorescence inhibition (FIG. 3A) and as well assess morphology and viability (in addition to GFP down regulation confirmation). In addition, quantitative Polymerase Chain Reaction (qPCR) for coronin 1 mRNA transcripts reveal reduction with compound 11 (FIG. 3B). The primers used for the qPCR on RBL cells are listed below as follows;

In data set [2] the test system is CMV promoter. Briefly: EC50 analysis for CMV promoter driven RFP inhibition (non-specific activity) by flow cytometry in RBL cells. The conditions noted are these: 48-65 h, read-out: EC50 RFP alteration. It counts as cell-based, cytomegalovirus. As for the experimental part:
RBL cells expressing GFP under coronin 1 promoter and optionally with RBL cells expressing RFP under CMV promoter were mixed in equal numbers and incubated with the compounds at indicated concentrations for 48-65 h and analyzed by flow cytometry for alteration in coronin 1 promoter (GFP fluorescence), CMV promoter (RFP fluorescence) values. In addition, the cells were labelled with live-dead marker for assessing cell viability status by flow cytometry. Cycloheximide (CHX) serves as positive control and DMSO serves as negative controls. Effective Concentration (EC50) values for coronin 1 promoter inhibition via GFP fluorescence analysis, non-specific promoter inhibition via CMV promoter driven-RFP fluorescence analysis and cell viability via live/dead staining as a measure for toxicity in flow cytometry for compounds (10-22 and 50a-65a) are shown in Table 6 and Table 7. Based on the EC50 analysis of the inhibition of coronin 1 promoter driven GFP fluorescence the (4S,7R)-configurated eutomers were identified (Structures FIG. 9A-C). This is exemplified for compounds containing two stereocenters by eutomers 11c and 13a. […] Subsequent EC50 evaluations (Table 7) were performed with compound 13a as standard for relative potency normalized to a value of 1.00 (relative potency calculated as [EC50 GFP inhibition 13a]/[EC50 GFP inhibition compound of interest]).

Data set [3] concerns RBL cells. Briefly: In vitro toxicity, Alamar blue assay. It counts as cell-based, Rat. The procedure:
In vitro cytotoxicity tests were performed using Alamar blue (Invitrogen, USA) following manufacturers protocol. In brief, RBL cells pretreated with coronin 1 expression inhibitor or vehicle controls were reseeded and cultured in a 96-well plate at a concentration of 1×10^4 cells/ml of culture media. Alamar blue was added to the wells and further incubated at 37° C. for 4 h. The absorbance was measured at 600 nm using a microplate reader (Synergy, BioTek Instruments). DMSO and cycloheximide served as the vehicle and positive control respectively (FIG. 5A).

The subject of data set [4] is RBL cells. Briefly: Cell viability by live-dead staining (cytotoxicity), flow cytometry. Type of data set: cell-based, Rat. The conditions noted are these: Rattus norvegicus, RBL, cell viability via live/dead staining, 48-65 h, read-out: EC50 Toxicity. An outline of the steps:
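RBL cells with coronin 1 promoter-GFP, mixed 1:1 with CMV promoter-RFP RBL cells, exposed to compound 48-65 h. Flow cytometry read RFP fluorescence for non-specific promoter inhibition and live-dead staining for cytotoxicity. EC50 values derived; cycloheximide positive control, DMSO negative.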

Data set [5] deals with coronin 1 promoter. Briefly: EC50 analysis for coronin 1 promoter driven GFP inhibition by flow cytometry in RBL cells. Type of data set: cell-based. The conditions noted are these: RBL, RBL cells, 48-65 h, flow cytometry. An outline of the steps:
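RBL cells carrying coronin 1 promoter–GFP, mixed with CMV promoter–RFP cells, exposed to compounds 48–65 h and analyzed by flow cytometry with live/dead staining. EC50 derived from GFP inhibition, with RFP and viability as nonspecific and toxicity counter-reads; cycloheximide and DMSO as controls, relative potency normalized to a reference compound.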

In data set [6] the test system is coronin 1 mRNA. Briefly: Quantitative PCR of coronin 1 mRNA in RBL cells. It counts as cell-based, Rat. The conditions noted are these: 3.5 μg/ml, 7 days. As for the experimental part:
as §1, with “compounds.” for “compounds. Shown are percentage of GFP reduction (left column) and percentage of RFP reduction (right column) for the compounds at 5 μg/ml concentration at 48 h. Cycloheximide (CHX) serves as positive control whereas media and DMSO serve as negative controls.”, “The primers used for the qPCR on RBL cells are listed below as follows;” left out

Data set [7] concerns coronin 1. Description: Western blotting of coronin 1 protein levels in RBL cells. The conditions noted are these: RBL cell lines, chemiluminescence imager. Type of data set: cell-based, Rat. The procedure: buffer with 0.2% SDS containing protease and phosphatase inhibitors (Roche) at 4° C., followed by protein determination (BCA, Pierce) and SDS-PAGE with equal protein amounts transferred onto nitrocellulose and probed using antibodies against the indicated proteins (actin and coronin 1) followed by HRP-labeled secondary antibodies and developed using an enhanced chemi-luminescence imager (Fuji) (FIG. 3C).

Consider `COC(=O)C1=C(C)NC2=C(C(=O)CC(c3ccccc3OC)C2)C1c1cccc(O)c1` (stereo not shown) [Comp. 11, methyl-4-(3-hydroxyphenyl)-7-(2-methoxyphenyl)-2-methyl-5-oxo-1,4,5,6,7,8-hexahydro-3-quinolinecarboxylate], for which the activity at 5 µg/mL in data set [1] came out at 111%. In addition, the EC50 in data set [2] was greater than 9 µM; in data set [4] it was greater than 9 µM; in data set [5] it was 1.2 µM. Besides, the “in vitro toxicity by Alamar blue assay” value in data set [3] was “minimal toxicity”. Further, the “coronin 1 mRNA transcripts (qPCR)” value in data set [6] was “reduction in coronin 1 transcripts”. For the same compound, the “coronin 1 depletion (Western blotting, protein level)” value in data set [7] is on record as roughly 80%.

The values are drawn from patent US20260102387A1, “IMMUNOSUPPRESSIVE COMPOUNDS” (UNIVERSITÄT BASEL, priority 2022, published 2026).
